Data published in PubChem BioAssay AID2060897 (Molecular Pharmacology Branch, DTP, NCI, 2025).

System: 966289-007-R4-J1-PDC complex spheroid viability
Test: Anticancer human tumor 966289-007-R4-J1-PDC patient-derived pancreatic adenocarcinoma cell line growth inhibition [RAS]
Details: for IC50: curve of first compound; for viability, T/C: stronger effect = lower value
Procedure, shortened: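 Agents were tested in combination matrices in half-log decrements from a top concentration at or near clinical Cmax (10 microM if undetermined). Targets were multi-cell spheroids of tumour lines plus HUVEC and MSC stromal cells.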
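Also: spheroids exposed to agents for one week before readout.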
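For viability, T/C in this document: percent viability relative to DMSO vehicle control wells as 100%.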

`CC(=O)OC12COC1CC(O)C1(C)C(=O)C(O)C3=C(C)C(OC(=O)C(O)C(NC(=O)OC(C)(C)C)c4ccccc4)CC(O)(C(OC(=O)c4ccccc4)C21)C3(C)C` (centres undefined) + CCn1c(-c2cc(N3CCN(C)CC3)cnc2C(C)OC)c2c3cc(ccc31)-c1csc(n1)CC(NC(=O)C1CC1C)C(=O)N1CCCC(N1)C(=O)OCC(C)(C)C2 was tested, and the IC50 (second compound 0.000949 µM) was less than 31.6 nM, the IC50 (second compound 0.003 µM) was less than 31.6 nM and the IC50 (second compound 0.00949 µM) was less than 31.6 nM. It also gave an IC50 (second compound 0.03 µM) of less than 31.6 nM, an IC50 (second compound 0.0949 µM) of less than 31.6 nM and an IC50 (second compound 0.3 µM) of less than 31.6 nM. For the same compound, the viability, T/C (second compound 0.000949 µM, first compound 0.0316 µM) was 6.12%, the viability, T/C (second compound 0.000949 µM, first compound 0.1 µM) was 13.9% and the viability, T/C (second compound 0.000949 µM, first compound 0.316 µM) was 13.5%. The viability, T/C (second compound 0.000949 µM, first compound 1 µM) was 21.5%, the viability, T/C (second compound 0.000949 µM, first compound 3.16 µM) was 29.3% and the viability, T/C (second compound 0.000949 µM, first compound 10 µM) was 55%. It also gave a viability, T/C (second compound 0.003 µM, first compound 0.0316 µM) of 6.11%, a viability, T/C (second compound 0.003 µM, first compound 0.1 µM) of 12.1% and a viability, T/C (second compound 0.003 µM, first compound 0.316 µM) of 10.9%. It also gave a viability, T/C (second compound 0.003 µM, first compound 1 µM) of 19.1%, a viability, T/C (second compound 0.003 µM, first compound 3.16 µM) of 35.8% and a viability, T/C (second compound 0.003 µM, first compound 10 µM) of 60.8%. The viability, T/C (second compound 0.00949 µM, first compound 0.0316 µM) was 6.07%, the viability, T/C (second compound 0.00949 µM, first compound 0.1 µM) was 11.1% and the viability, T/C (second compound 0.00949 µM, first compound 0.316 µM) was 13.5%. It also gave a viability, T/C (second compound 0.00949 µM, first compound 1 µM) of 16.5%, a viability, T/C (second compound 0.00949 µM, first compound 3.16 µM) of 42.2% and a viability, T/C (second compound 0.00949 µM, first compound 10 µM) of 54.5%. The viability, T/C (second compound 0.03 µM, first compound 0.0316 µM) was 7.27%, the viability, T/C (second compound 0.03 µM, first compound 0.1 µM) was 8.94% and the viability, T/C (second compound 0.03 µM, first compound 0.316 µM) was 16.7%. The viability, T/C (second compound 0.03 µM, first compound 1 µM) was 20.9%, the viability, T/C (second compound 0.03 µM, first compound 3.16 µM) was 40.2% and the viability, T/C (second compound 0.03 µM, first compound 10 µM) was 60.1%. It also gave a viability, T/C (second compound 0.0949 µM, first compound 0.0316 µM) of 5.65%, a viability, T/C (second compound 0.0949 µM, first compound 0.1 µM) of 11.1% and a viability, T/C (second compound 0.0949 µM, first compound 0.316 µM) of 13.4%. The viability, T/C (second compound 0.0949 µM, first compound 1 µM) was 19.3%, the viability, T/C (second compound 0.0949 µM, first compound 3.16 µM) was 51.7% and the viability, T/C (second compound 0.0949 µM, first compound 10 µM) was 59.8%. The viability, T/C (second compound 0.3 µM, first compound 0.0316 µM) was 7.9%, the viability, T/C (second compound 0.3 µM, first compound 0.1 µM) was 14.3% and the viability, T/C (second compound 0.3 µM, first compound 0.316 µM) was 18.4%. For the same compound, the viability, T/C (second compound 0.3 µM, first compound 1 µM) was 23.5%, the viability, T/C (second compound 0.3 µM, first compound 3.16 µM) was 41.7% and the viability, T/C (second compound 0.3 µM, first compound 10 µM) was 56%.

Work on `CCc1c2c(nc3ccc(O)cc13)-c1cc3c(c(=O)n1C2)COC(=O)[C@]3(O)CC` + CCn1c(-c2cc(N3CCN(C)CC3)cnc2C(C)OC)c2c3cc(ccc31)-c1csc(n1)CC(NC(=O)C1CC1C)C(=O)N1CCCC(N1)C(=O)OCC(C)(C)C2 yielded an IC50 (second compound 0.000949 µM) of 1.67 nM, an IC50 (second compound 0.003 µM) of 1.57 nM and an IC50 (second compound 0.00949 µM) of 1.39 nM. For the same compound, the IC50 (second compound 0.03 µM) was 1.14 nM, the IC50 (second compound 0.0949 µM) was 1.15 nM and the IC50 (second compound 0.3 µM) was 1.21 nM. For the same compound, the viability, T/C (second compound 0.000949 µM, first compound 0.000949 µM) was 95.5%, the viability, T/C (second compound 0.000949 µM, first compound 0.003 µM) was 2.7% and the viability, T/C (second compound 0.000949 µM, first compound 0.00949 µM) was 0.64%. The viability, T/C (second compound 0.000949 µM, first compound 0.03 µM) was 0.62%, the viability, T/C (second compound 0.000949 µM, first compound 0.0949 µM) was 0.49% and the viability, T/C (second compound 0.000949 µM, first compound 0.3 µM) was 0.57%. For the same compound, the viability, T/C (second compound 0.003 µM, first compound 0.000949 µM) was 86.2%, the viability, T/C (second compound 0.003 µM, first compound 0.003 µM) was 3.2% and the viability, T/C (second compound 0.003 µM, first compound 0.00949 µM) was 0.55%. For the same compound, the viability, T/C (second compound 0.003 µM, first compound 0.03 µM) was 0.6%, the viability, T/C (second compound 0.003 µM, first compound 0.0949 µM) was 1.32% and the viability, T/C (second compound 0.003 µM, first compound 0.3 µM) was 0.57%. For the same compound, the viability, T/C (second compound 0.00949 µM, first compound 0.000949 µM) was 71.3%, the viability, T/C (second compound 0.00949 µM, first compound 0.003 µM) was 6.94% and the viability, T/C (second compound 0.00949 µM, first compound 0.00949 µM) was 1.03%. It also gave a viability, T/C (second compound 0.00949 µM, first compound 0.03 µM) of 0.54%, a viability, T/C (second compound 0.00949 µM, first compound 0.0949 µM) of 0.73% and a viability, T/C (second compound 0.00949 µM, first compound 0.3 µM) of 0.75%. The viability, T/C (second compound 0.03 µM, first compound 0.000949 µM) was 58.1%, the viability, T/C (second compound 0.03 µM, first compound 0.003 µM) was 7.49% and the viability, T/C (second compound 0.03 µM, first compound 0.00949 µM) was 0.82%. The viability, T/C (second compound 0.03 µM, first compound 0.03 µM) was 1.66%, the viability, T/C (second compound 0.03 µM, first compound 0.0949 µM) was 0.53% and the viability, T/C (second compound 0.03 µM, first compound 0.3 µM) was 0.43%. The viability, T/C (second compound 0.0949 µM, first compound 0.000949 µM) was 58.9%, the viability, T/C (second compound 0.0949 µM, first compound 0.003 µM) was 4.98% and the viability, T/C (second compound 0.0949 µM, first compound 0.00949 µM) was 0.8%. It also gave a viability, T/C (second compound 0.0949 µM, first compound 0.03 µM) of 0.54%, a viability, T/C (second compound 0.0949 µM, first compound 0.0949 µM) of 0.7% and a viability, T/C (second compound 0.0949 µM, first compound 0.3 µM) of 0.4%. It also gave a viability, T/C (second compound 0.3 µM, first compound 0.000949 µM) of 62.1%, a viability, T/C (second compound 0.3 µM, first compound 0.003 µM) of 4.76% and a viability, T/C (second compound 0.3 µM, first compound 0.00949 µM) of 0.65%. The viability, T/C (second compound 0.3 µM, first compound 0.03 µM) was 0.58%, the viability, T/C (second compound 0.3 µM, first compound 0.0949 µM) was 0.62% and the viability, T/C (second compound 0.3 µM, first compound 0.3 µM) was 0.39%.
